Assays:
[1] = system: Blood; test: Retention time in human whole blood in presence of 0.1% formic acid in water at 20 uM by LC-MS/MS method; type: ADME, tissue-based
[2] = system: Blood; test: Retention time in rat whole blood in presence of 0.1% formic acid in water at 20 uM by LC-MS/MS method; type: ADME, tissue-based
[3] = system: Blood; test: Retention time in human whole blood in presence of 0.1% formic acid in acetonitrile at 20 uM by LC-MS/MS method; type: ADME, tissue-based
[4] = system: Blood; test: Retention time in rat whole blood in presence of 0.1% formic acid in acetonitrile at 20 uM by LC-MS/MS method; type: ADME, tissue-based
[5] = system: Blood; test: Drug metabolism in human whole blood treated with 20 uM RRx-001 assessed as compound formation by LC-MS/MS method; type: ADME, tissue-based
[6] = system: Blood; test: Drug metabolism in rat whole blood treated with 20 uM RRx-001 assessed as compound formation by LC-MS/MS method; type: ADME, tissue-based
[7] = Drug level assessed as compound formation from RRx-001 after 1 hr in presence of reduced GSH at pH 7.8 by LC-MS/MS method; type: physicochemical; details: pH 7.8, 1 h

Row | Compound | Retention_time [1] | Retention_time [2] | Retention_time [3] | Retention_time [4] | Drug metabolism [5] | Drug metabolism [6] | Drug metabolism [7]
1 | N[C@@H](CSCC(=O)N1CC([N+](=O)[O-])C1)C(=O)O | 4.7 min | 4.7 min | 4.3 min | 4.3 min | metabolite_detected | metabolite_detected | –
2 | N[C@@H](CSCC(=O)N1CC([N+](=O)[O-])([N+](=O)[O-])C1)C(=O)O | 7.8 min | 7.8 min | 7.6 min | 7.6 min | metabolite_detected | metabolite_detected | metabolite_detected
